Test results published in PMC8834506, “Optimization of Thymidine Kinase-Based Safety Switch for Neural Cell Therapy” (Cells, 2022).
“Also recorded” adds a separate entry of the source. Where two headings read alike, the source gives them in different places.

How the values were obtained:
[1] = test system: ReNcell wt (non-transduced proliferating ReNcells); assay: cells; assay type: cell-based; settings: Homo sapiens; 96 h GCV exposure; read-out: EC50 of GCV, killing of non-transduced proliferating ReNcells
Description: (§1) Cells were exposed to 100 µM of the respective nucleoside for 48 h. DNA damage was monitored using γ-H2A.X marker in yellow and nuclei were counterstained with Hoechst. The white box in the first column indicates the area of the zoom for the hESC colonies.
(§2) Plates were washed twice with DMEM-F12 (Gibco, ThermoFisher; Geneva, Switzerland), then coated with Matrigel (Corning, Lonay, Switzerland) 1/100 in DMEM-F12 and incubate 2 h at 37°. Cells were detached using Accutase and seeded at 2000 cells/well in serum-free culture medium containing 10 µM of ROCK inhibitor. At 24 h, the cell culture was continued without ROCK inhibitor. […] Drugs were prepared by serial dilution (two-fold) in 100% DMSO. At 48 h after seeding, cells were exposed to antiviral drugs for 96 h. For EC50 assays, the medium was changed daily for 4 days, then cell viability was assessed using an ATP-based assay. EC50 values for each construct were calculated using a four parameters equation (GraphPad, Prism8, San Diego, CA, USA). The same procedure was used for the cell death kinetic determinations except the treatment duration. Luminescence was measured using Spectra L384/L96 (0.2 sec exposure, Molecular devices, Biberach an der Riß, Germany).

[2] = test system: non-transduced hESC; assay type: cell-based; settings: 96 h nucleoside exposure; up to 100 µM
Description: as §1, §2

[3] = test system: Ki67-SR39h-expressing hESC transplanted into the striatum; assay: In vivo prevention of tumor formation after striatal transplantation; set-up: species or system NOD/SCID mice; settings: 40 mg/kg/day i.p., 47 days post-transplantation
Description: Given the encouraging in vitro results, we next investigated whether this newly developed safety switch system (SR39h and different nucleoside analogs) could prevent tumor formation in vivo. For this purpose, 20,000 undifferentiated Ki67-SR39h-expressing hESC were transplanted into the striatum of NOD/SCID mice. […] A group of control mice received only a NaCl solution. […] Human cytoplasmic marker (HCM) staining confirmed the human (i.e., hESC-derived) origin of these tumors. Tumors cells were predominantly Ki67 positive with a rosette organization as frequently found in tumors of the central nervous system.
Figure 7 in vivo validation of suicide gene and inducers. (A) Schematic diagram of the experimental setup to detect tumor elimination in vivo. NOD/SCID mice were transplanted with 20,000 SR39h-expressing hESC through stereotactic injection into the striatum. 48 h post transplantation, mice were intraperitoneally injected with the respective nucleoside (40 mg/kg) for five consecutive days a week during a two-week period. Control mice were treated with a NaCl solution. Mice were sacrificed 47 days post transplantation. (B) Cresyl violet staining of a brain section. […] (C) Immunostaining of brain coronal section (sections from ACV-, PCV-, and GCV-treated mice are shown in the upper, middle, and lower row, respectively). Staining with the proliferation marker Ki67 and with the human cytoplasmic marker (HCM) are shown in red and green, respectively. Nuclei were counterstained with DAPI (blue). White arrows show residual proliferative cells form the graft. A merge of the three staining is shown in the right column. Each experimental group consisted of five mice.
Single cell transplant: Undifferentiated HS420 (expressing TK variants) were detached by TrypLE and concentrated at 20,000 cells/μL in Stemflex. 20,000 cells (1 μL) were injected into the right striatum using a 26-G Hamilton syringe (Hamilton, BGB Analytik AG, Boeckten, Switzerland). Injection coordinates for striatum were: bregma = 0.6 mm, mediolateral = 2 mm, dorsoventral = 3 mm.
Thirty days after termination of treatment with the respective antiviral nucleoside analogs or control (NaCl), mice were sacrificed by intracardiac perfusion of paraformaldehyde 4% in PBS. Brains were removed from the skull and post-fixed in the same fixative overnight.
Paraffin embedded brains were sectioned (coronal sections 7 µm thick) and processed for hematoxylin and eosin or cresyl violet staining stain aiming morphological assessment of the graft. Sections were mounted in Eukitt (Kindler GmbH, Germany) and observed under microscope (see below)
The primary antibody diluted in PBS with 0.3% Triton was incubated at 4 °C overnight in agitation. […]

[4] = test system: hESC (HS420) expressing Ki67-SR39h; assay: ATP-based cell survival assay, nucleoside-induced cell death; settings: for EC50: Homo sapiens, 96 h

SMILES: Nc1nc(O)c2ncn(COC(CO)CO)c2n1 [GCV, ganciclovir]
- EC50 [1]: 12000 nM
- Toxicity in non-transduced hESC [2]: low micromolar range
- Tumor formation ([3]; five consecutive days a week for two weeks, from 2 days after transplantation, five mice per group): prevented tumor formation; also recorded: no major tumors; also recorded: impressive anti-tumor activities
- Mice with a small nuclei-rich region at the graft site ([3]; cresyl violet staining): did not observe any structures resembling tumors
- Cell death induction in SR39h-expressing cells (in words) ([4]; 96 h nucleoside exposure): strong suicide inducers
- Fold more performant than SR39 ([4]; GCV EC50, SR39h vs SR39): 10 fold
- EC50 ([4]; read-out: EC50 (cell survival), 96 h nucleoside exposure, SR39h under Ki67 promoter): 0.2 nM
- EC50 ([4]; read-out: GCV EC50 in M, 96 h GCV exposure, Ki67-SR39h): 0.19 nM
